# According to PMC8222254, “Self-assembly of an anion receptor with metal-dependent kinase inhibition and potent in vitro anti-cancer properties” (Nature Communications, 2021):
# “And” between values parts separate entries of the source, which are not always exact repeats. Equal values may be shown once.
# Key:
# Test in all cases: Kinase inhibition screen, cell-free 33P ATP assay at 10 μM
# Format in all cases: biochemical
# [1] = target: T1, 140 purified human kinases (Homo sapiens, UniProt Q92630)
# T1 sequence (Q92630 1-601): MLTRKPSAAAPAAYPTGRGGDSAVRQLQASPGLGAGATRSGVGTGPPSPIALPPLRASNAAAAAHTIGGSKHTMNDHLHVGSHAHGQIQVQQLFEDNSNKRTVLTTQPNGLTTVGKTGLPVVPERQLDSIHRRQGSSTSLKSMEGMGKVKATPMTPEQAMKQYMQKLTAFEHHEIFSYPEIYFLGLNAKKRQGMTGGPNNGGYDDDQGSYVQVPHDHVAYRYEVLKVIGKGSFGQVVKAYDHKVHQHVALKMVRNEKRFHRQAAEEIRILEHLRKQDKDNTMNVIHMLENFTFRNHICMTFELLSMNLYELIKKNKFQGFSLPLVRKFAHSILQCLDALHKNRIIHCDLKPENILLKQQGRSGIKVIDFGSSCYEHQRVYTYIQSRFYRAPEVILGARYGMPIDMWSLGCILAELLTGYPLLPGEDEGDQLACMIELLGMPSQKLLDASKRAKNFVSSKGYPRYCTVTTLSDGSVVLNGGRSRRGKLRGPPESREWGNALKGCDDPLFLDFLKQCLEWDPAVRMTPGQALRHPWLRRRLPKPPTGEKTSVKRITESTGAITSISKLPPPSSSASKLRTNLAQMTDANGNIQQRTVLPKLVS
# Outline: (§1)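 Radiometric ^33P ATP cell-free format with purified enzymes; both complexes run at 10 μM in duplicate, results plotted on a kinome map via HGNC symbols.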
# [2] = target: 140 purified human kinases (Homo sapiens, UniProt Q15746); details: SmMLCK
# 140 purified human kinases (Homo sapiens, UniProt Q15746), sequence (Q15746 whole entry): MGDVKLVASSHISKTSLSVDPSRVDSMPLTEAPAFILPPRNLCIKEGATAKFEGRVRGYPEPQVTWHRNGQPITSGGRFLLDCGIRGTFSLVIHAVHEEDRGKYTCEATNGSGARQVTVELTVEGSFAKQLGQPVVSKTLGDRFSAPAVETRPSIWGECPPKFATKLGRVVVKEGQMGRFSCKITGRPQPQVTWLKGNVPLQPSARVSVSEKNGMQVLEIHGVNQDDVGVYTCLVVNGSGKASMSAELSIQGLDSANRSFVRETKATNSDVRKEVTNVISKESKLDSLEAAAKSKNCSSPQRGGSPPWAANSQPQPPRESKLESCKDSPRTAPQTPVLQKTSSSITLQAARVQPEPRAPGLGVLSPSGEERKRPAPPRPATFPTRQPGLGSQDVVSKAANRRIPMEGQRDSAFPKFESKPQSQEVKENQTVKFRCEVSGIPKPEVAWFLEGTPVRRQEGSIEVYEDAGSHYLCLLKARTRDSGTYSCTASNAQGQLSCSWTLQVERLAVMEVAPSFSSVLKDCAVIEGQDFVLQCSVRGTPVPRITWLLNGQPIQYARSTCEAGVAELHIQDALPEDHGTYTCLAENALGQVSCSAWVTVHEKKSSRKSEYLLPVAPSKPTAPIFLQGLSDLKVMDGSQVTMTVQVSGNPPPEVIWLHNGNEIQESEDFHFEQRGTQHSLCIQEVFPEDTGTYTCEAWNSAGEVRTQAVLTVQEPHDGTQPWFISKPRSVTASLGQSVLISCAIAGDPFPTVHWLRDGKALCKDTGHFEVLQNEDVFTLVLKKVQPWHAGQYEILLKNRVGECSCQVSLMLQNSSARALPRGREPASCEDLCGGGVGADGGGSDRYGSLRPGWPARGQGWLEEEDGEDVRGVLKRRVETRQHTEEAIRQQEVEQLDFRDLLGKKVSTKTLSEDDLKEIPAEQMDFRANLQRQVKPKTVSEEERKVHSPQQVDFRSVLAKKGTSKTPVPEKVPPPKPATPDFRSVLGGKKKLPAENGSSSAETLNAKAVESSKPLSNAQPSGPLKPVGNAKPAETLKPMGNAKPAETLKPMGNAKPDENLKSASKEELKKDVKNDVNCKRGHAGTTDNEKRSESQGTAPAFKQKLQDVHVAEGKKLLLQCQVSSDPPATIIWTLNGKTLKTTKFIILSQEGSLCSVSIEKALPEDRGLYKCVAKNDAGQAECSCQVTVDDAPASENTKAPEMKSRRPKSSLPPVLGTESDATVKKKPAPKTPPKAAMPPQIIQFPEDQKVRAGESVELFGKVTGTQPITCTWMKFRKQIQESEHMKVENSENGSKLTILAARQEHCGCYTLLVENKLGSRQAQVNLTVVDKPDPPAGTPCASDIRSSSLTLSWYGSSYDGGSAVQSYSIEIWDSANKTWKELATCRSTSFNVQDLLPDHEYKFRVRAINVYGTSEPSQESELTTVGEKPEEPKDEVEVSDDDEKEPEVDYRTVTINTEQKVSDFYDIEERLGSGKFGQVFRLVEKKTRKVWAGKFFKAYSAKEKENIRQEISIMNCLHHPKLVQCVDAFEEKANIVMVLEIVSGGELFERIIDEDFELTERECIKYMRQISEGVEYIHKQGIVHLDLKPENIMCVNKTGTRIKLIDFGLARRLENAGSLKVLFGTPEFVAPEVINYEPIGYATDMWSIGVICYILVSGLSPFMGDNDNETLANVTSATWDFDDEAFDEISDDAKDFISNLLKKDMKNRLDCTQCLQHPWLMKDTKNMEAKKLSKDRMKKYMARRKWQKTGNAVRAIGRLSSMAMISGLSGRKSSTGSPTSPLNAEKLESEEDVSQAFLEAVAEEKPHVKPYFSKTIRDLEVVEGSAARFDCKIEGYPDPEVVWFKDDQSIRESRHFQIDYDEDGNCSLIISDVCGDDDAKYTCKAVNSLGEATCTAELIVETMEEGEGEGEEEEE
# Outline: as §1
# [3] = target: 140 purified human kinases (Homo sapiens, UniProt Q9H2X6)
# 140 purified human kinases (Homo sapiens, UniProt Q9H2X6), sequence (Q9H2X6 whole entry): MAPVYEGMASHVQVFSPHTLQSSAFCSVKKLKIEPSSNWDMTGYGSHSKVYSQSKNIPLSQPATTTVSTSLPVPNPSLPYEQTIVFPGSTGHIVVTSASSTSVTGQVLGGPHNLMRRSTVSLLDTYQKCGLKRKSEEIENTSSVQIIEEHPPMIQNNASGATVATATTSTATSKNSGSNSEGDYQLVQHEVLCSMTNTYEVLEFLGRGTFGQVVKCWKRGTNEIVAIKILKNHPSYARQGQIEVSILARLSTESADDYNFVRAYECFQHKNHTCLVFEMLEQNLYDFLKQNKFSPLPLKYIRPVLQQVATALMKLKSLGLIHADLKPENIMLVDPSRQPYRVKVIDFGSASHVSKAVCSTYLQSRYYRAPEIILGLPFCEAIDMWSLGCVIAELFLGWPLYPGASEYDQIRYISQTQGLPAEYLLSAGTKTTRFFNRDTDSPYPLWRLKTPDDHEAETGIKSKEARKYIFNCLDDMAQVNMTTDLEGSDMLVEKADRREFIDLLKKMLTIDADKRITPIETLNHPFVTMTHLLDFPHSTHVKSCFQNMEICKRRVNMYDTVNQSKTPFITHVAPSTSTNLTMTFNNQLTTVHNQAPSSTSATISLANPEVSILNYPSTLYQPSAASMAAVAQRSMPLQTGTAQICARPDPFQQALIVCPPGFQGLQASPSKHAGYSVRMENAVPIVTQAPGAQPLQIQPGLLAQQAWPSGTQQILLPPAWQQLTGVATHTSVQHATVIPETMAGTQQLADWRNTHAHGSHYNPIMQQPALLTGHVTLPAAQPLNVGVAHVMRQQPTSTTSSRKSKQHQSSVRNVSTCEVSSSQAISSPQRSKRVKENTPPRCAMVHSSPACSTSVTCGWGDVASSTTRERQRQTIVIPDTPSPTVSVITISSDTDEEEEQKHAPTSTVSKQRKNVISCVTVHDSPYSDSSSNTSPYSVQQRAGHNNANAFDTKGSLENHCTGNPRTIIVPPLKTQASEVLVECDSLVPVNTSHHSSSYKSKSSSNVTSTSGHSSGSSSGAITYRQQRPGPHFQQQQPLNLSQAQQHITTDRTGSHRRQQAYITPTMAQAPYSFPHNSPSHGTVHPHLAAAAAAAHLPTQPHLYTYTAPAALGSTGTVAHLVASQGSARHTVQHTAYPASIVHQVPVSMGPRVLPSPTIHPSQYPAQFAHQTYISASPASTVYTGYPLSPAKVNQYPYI
# Outline: as §1
# [4] = target: T2, 140 purified human kinases (Homo sapiens, UniProt O75385)
# T2 sequence (O75385 1-1050): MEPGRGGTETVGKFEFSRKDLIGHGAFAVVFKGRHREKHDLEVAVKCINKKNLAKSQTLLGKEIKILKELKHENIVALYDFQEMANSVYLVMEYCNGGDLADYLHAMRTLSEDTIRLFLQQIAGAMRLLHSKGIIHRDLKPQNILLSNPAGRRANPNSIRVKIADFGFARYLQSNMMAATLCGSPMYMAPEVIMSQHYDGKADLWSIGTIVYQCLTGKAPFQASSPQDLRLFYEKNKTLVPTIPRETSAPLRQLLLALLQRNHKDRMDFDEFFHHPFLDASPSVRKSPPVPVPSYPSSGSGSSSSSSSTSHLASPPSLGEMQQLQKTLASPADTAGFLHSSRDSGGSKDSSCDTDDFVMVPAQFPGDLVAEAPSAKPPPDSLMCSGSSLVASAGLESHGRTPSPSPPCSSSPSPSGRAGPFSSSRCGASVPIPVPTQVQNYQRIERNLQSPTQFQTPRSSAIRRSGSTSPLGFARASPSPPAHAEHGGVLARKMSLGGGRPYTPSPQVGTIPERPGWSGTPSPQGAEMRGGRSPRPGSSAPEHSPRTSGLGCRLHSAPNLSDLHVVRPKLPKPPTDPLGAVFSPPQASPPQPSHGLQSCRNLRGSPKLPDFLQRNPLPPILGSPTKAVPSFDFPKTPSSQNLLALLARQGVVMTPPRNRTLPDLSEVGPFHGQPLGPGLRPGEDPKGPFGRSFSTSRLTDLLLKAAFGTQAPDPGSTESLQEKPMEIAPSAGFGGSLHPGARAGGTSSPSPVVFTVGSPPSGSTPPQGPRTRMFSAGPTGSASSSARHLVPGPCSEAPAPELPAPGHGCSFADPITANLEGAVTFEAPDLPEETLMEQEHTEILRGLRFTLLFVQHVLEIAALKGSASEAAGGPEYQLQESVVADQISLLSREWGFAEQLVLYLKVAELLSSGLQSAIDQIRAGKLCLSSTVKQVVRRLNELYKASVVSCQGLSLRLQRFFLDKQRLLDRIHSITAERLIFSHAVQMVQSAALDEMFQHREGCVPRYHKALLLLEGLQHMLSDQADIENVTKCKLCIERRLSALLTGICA
# Outline: as §1
# [5] = target: 140 purified human kinases (Homo sapiens, UniProt Q86Z02)
# Outline: as §1
# [6] = target: 140 purified human kinases (Homo sapiens, UniProt Q9H0K1)
# 140 purified human kinases (Homo sapiens, UniProt Q9H0K1), sequence (Q9H0K1 whole entry): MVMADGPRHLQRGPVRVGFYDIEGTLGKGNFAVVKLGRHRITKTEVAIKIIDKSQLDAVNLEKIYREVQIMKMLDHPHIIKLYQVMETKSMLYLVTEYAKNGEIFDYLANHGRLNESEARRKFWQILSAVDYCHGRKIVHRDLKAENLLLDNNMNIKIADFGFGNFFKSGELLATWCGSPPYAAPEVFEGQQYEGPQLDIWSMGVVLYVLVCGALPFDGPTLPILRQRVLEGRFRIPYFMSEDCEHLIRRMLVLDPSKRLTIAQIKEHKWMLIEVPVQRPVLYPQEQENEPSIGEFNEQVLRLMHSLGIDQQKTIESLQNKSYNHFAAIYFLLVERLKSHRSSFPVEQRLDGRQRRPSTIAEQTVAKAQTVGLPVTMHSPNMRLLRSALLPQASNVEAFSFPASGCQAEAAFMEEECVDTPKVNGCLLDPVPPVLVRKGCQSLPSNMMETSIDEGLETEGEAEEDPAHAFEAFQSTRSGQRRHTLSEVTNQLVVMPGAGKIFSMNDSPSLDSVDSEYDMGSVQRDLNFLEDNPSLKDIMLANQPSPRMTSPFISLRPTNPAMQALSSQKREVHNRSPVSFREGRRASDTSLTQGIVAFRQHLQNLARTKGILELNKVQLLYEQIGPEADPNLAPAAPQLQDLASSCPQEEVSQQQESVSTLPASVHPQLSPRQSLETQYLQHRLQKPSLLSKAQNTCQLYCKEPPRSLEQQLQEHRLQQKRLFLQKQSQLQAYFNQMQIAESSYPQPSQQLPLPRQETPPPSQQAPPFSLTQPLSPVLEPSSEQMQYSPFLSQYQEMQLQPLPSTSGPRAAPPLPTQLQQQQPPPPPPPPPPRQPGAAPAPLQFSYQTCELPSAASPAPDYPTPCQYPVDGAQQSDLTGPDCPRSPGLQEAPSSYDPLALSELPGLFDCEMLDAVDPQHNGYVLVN
# Outline: as §1
# [7] = target: 140 purified human kinases (Homo sapiens, UniProt Q06187); details: BTK
# 140 purified human kinases (Homo sapiens, UniProt Q06187), sequence (Q06187 whole entry): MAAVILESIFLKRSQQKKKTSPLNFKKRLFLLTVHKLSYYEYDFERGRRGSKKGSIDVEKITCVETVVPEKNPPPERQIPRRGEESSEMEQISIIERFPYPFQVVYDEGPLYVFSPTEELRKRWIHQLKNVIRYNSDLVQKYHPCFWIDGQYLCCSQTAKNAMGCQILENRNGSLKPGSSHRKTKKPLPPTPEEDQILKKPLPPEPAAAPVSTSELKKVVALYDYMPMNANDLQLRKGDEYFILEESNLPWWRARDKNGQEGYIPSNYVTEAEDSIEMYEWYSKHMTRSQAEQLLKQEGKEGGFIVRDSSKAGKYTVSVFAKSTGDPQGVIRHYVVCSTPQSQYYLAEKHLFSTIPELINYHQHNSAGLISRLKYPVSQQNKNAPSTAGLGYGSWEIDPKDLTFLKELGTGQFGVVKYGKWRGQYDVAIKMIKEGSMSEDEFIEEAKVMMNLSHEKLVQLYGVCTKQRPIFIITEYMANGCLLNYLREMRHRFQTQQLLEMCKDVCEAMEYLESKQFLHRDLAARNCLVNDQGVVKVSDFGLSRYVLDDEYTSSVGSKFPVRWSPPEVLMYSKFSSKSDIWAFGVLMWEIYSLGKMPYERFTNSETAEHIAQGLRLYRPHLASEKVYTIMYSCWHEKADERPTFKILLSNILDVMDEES
# Outline: as §1
smiles,measurement,setting,value
[Cu+2].[Cu+2].[Cu+2].c1ccc(-c2csc(NCCN(CCNc3nc(-c4ccccn4)cs3)CCNc3nc(-c4ccccn4)cs3)n2)nc1.c1ccc(-c2csc(NCCN(CCNc3nc(-c4ccccn4)cs3)CCNc3nc(-c4ccccn4)cs3)n2)nc1 [[L2Cu3]6+],% Inhibition Run 1,[1]; DYRK2,27.2%
same,% Inhibition Run 2,[1]; DYRK2,-2.7%
same,"% Inhibition, Mean",[1]; DYRK2,12%
same,mean % activity,[1]; DYRK2,88%
same,% activity,"[1]; DYRK2, Run 1",72.8%
same,% activity,"[1]; DYRK2, Run 2",102.7%
same,% Inhibition Run 1,[2],59.8%
same,% Inhibition Run 2,[2],52.2%
same,"% Inhibition, Mean",[2],56%
same,mean % activity,[2],44%
same,% activity,[2]; Run 1,40.2%
same,% activity,[2]; Run 2,47.8%
same,% Inhibition Run 1,[3]; HIPK2,50.5%
same,% Inhibition Run 2,[3]; HIPK2,45.5%
same,"% Inhibition, Mean",[3]; HIPK2,48%
same,mean % activity,[3]; HIPK2,52%
same,% activity,"[3]; HIPK2, Run 1",49.5%
same,% activity,"[3]; HIPK2, Run 2",54.5%
same,% Inhibition Run 1,[4]; ULK1,75.8%
same,% Inhibition Run 2,[4]; ULK1,76.3%
same,"% Inhibition, Mean",[4]; ULK1,76%
same,mean % activity,[4]; ULK1,24%
same,% activity,"[4]; ULK1, Run 1",24.2%
same,% activity,"[4]; ULK1, Run 2",23.7%
same,% Inhibition Run 1,[5]; HIPK1,90.8%
same,% Inhibition Run 2,[5]; HIPK1,84.1%
same,"% Inhibition, Mean",[5]; HIPK1,87%
same,mean % activity,[5]; HIPK1,13%
same,% activity,"[5]; HIPK1, Run 1",9.2%
same,% activity,"[5]; HIPK1, Run 2",15.9%
same,% Inhibition Run 1,[6]; SIK2,88.3%
same,% Inhibition Run 2,[6]; SIK2,90.4%
same,"% Inhibition, Mean",[6]; SIK2,89%
same,mean % activity,[6]; SIK2,11%
same,% activity,"[6]; SIK2, Run 1",11.7%
same,% activity,"[6]; SIK2, Run 2",9.6%
same,% Inhibition Run 1,[7],88.8%
same,% Inhibition Run 2,[7],82.3%
same,"% Inhibition, Mean",[7],86%
same,mean % activity,[7],14%
same,% activity,[7]; Run 1,11.2%
same,% activity,[7]; Run 2,17.7%
CC(=O)[O-].CC(=O)[O-].CC(=O)[O-].CC(=O)[O-].CC(=O)[O-].CC(=O)[O-].[Zn+2].[Zn+2].[Zn+2].c1ccc(-c2csc(NCCN(CCNc3nc(-c4ccccn4)cs3)CCNc3nc(-c4ccccn4)cs3)n2)nc1.c1ccc(-c2csc(NCCN(CCNc3nc(-c4ccccn4)cs3)CCNc3nc(-c4ccccn4)cs3)n2)nc1 [[L2Zn3]6+],"% Activation, Mean value",[1]; DYRK2,4.5%
same,"% Inhibition, Mean",[1]; DYRK2,-4.5%
same,mean % activity,[1]; DYRK2,105%
same,% activity,"[1]; DYRK2, duplicate runs",97% and 112%
same,"% Inhibition, Mean",[2],3.75%
same,mean % activity,[2],96%
same,% activity,[2]; duplicate runs,76% and 117%
same,"% Inhibition, Mean",[3]; HIPK2,12%
same,mean % activity,[3]; HIPK2,88%
same,% activity,"[3]; HIPK2, duplicate runs",76% and 100%
same,"% Inhibition, Mean",[4]; ULK1,30%
same,mean % activity,[4]; ULK1,70%
same,% activity,"[4]; ULK1, duplicate runs",58% and 82%
same,"% Inhibition, Mean",[5]; HIPK1,14%
same,mean % activity,[5]; HIPK1,86%
same,% activity,"[5]; HIPK1, duplicate runs",92% and 81%
same,"% Inhibition, Mean",[6]; SIK2,68%
same,"% Inhibition, Run 1 / Run 2",[6]; SIK2,72% and 64%
same,mean % activity,[6]; SIK2,32%
same,% activity,"[6]; SIK2, duplicate runs",29% and 36%
same,"% Inhibition, Mean",[7],47%
same,"% Inhibition, Run 1 / Run 2",[7],56% and 39%
same,mean % activity,[7],53%
same,% activity,[7]; duplicate runs,45% and 61%
